Results as given in patent US9687432B2, “Antimicrobial bispyridine amine compositions and uses” (LONZA INC., priority 2012, dated 2017).
Structures can show the parent of a compound that is named as a salt.

Experiments:
[1] = test system: EpiOcular™ Tissue Model (OCL-200); assay: MatTek EpiOcular MTT Viability Assay (ocular irritancy); assay type: cell-based, human
Method: The MatTek EpiOcular™ MTT Viability Assay (MatTek Corp.) was utilized to assess ocular irritancy and toxicology of octenidine distearate and octenidine dihydrochloride. The assay was performed using the MatTek EpiOcular™ Tissue Model (OCL-200) as well as the Methyl thiazole tetrazolium (MT) Kit (MT-100). The EpiOcular™ Tissue Model closely parallels human ocular tissue, thus providing a useful in vitro method to assess ocular irritancy and toxicology.
MTT Reduction: 704 μl of mineral oil were heated at 70° C. for 10 minutes.
0.3% Triton® X-100 (MatTek) (clear liquid) was used as a positive control. Tissue culture water (TCH20) (Sigma) (clear liquid) was used as a negative control. Mineral oil (Sigma) (clear liquid) was used as a vehicle control.
Before use, tissues were incubated (37° C.±1° C., 5%±1% CO2) with assay medium (MatTek) for a one-hour equilibration. Equilibration medium was replaced with fresh medium before dosing.
The test articles were diluted as described in the sample preparation above. 100 μl of the test article dilution were mixed with 1 ml of MTT solution (1 mg/ml MTT diluted in Dulbecco's Modified Eagle's Medium (DMEM). A negative control (100 μl of tissue culture water) and a vehicle control (100 μl of mineral oil) were tested concurrently. The solutions were incubated at room temperature in the dark for 60 minutes. After incubation, the solutions were visually inspected for purple coloration, which is a positive indication that the test article reduced MTT. Since tissue viability is based on MTT reduction, direct reduction by a test article can exaggerate viability, making a test article seem less irritating that it really is. […]
At the end of the selected exposure periods, each EpiOcular™ tissue was rinsed with phosphate buffered saline (PBS), soaked for 10 minutes in assay medial and transferred to a 24-well plate containing 300 μl of MTT solution (1 mg/ml MTT in DMEM). […] An aliquot of the extracted MTT formazan was measured at 540 nm using a plate reader (μQuant Plate Reader, Bio-Tek Instruments, Winooski, Vt.), subtracting the absorbance at a reference wavelength of 690 nm.
The mean absorbance value for each time point was calculated from the optical density (OD) of the duplicate samples and expressed as percent viability for each sample using the following formula: % viability=100×(OD sample/OD negative control or vehicle control) The ET50, the time at which the EpiOcular™ tissue viability was reduced 50% compared to control tissues, was then determined using a macro in Microsoft Excel 5.0, provided by MatTek, using the equation: V=a+b log t Where V=percent viability, t=time in hours, and a and b are constants that can be determined by using the viability data for two different exposure times of the text article to the tissue.

[2] = test system: Staphylococcus aureus (6538); assay: Minimum Inhibitory Concentration (MIC) test, 96-well microtiter plate; assay type: cell-based; conditions: 48 hrs at 36° C., visual inspection
Method: (§1) MICs for the organisms were determined using a standard 96-well microtiter plate assay in Tryptic Soy Broth (TSB) or Sabouraud Dextrose Broth (SDB). A stock solution (2500 ppm) of Octenidine distearate was prepared in methanol and stock solutions (2500 ppm) of Octenidine dihydrochloride and PHMB were prepared in absolute ethanol. […] Fungal inocula were grown up on Sabouraud Dextrose Agar plates (yeast) or Potato Dextrose Agar plates (mold) and mold spores and yeast cells were adjusted to approximately 100,000 per milliliter in Sabouraud Dextrose Broth (pH 5.6). Bacterial and fungal cultures were used to inoculate the serially diluted antimicrobials in the 96 well microplate and the plate was then incubated for 48 hrs at 36° C. The lowest concentration of test compound inhibiting growth at 48 hrs. (as determined by visual inspection) was recorded as the Minimum Inhibitory Concentration (MIC)

[3] = test system: Enterobacter gergoviae (33028); assay: as above; assay type: cell-based; conditions: 48 hrs at 36° C., visual inspection
Method: as §1

[4] = test system: Penicillium pinophilium (11797); assay: as above; assay type: cell-based; conditions: 48 hrs at 36° C., Sabouraud Dextrose Broth
Method: as §1

[5] = test system: Gliocladium virens (9645); assay: as above; assay type: cell-based; conditions: 48 hrs at 36° C., Sabouraud Dextrose Broth
Method: as §1

[6] = test system: Pseudomonas aeruginosa (9027); assay: as above; assay type: cell-based; conditions: 48 hrs at 36° C., visual inspection
Method: as §1

[7] = test system: Pseudomonas aeruginosa (15442); assay: as above; assay type: cell-based; conditions: 48 hrs at 36° C., visual inspection
Method: as §1

[8] = test system: LB penicillium sp.; assay: as above; assay type: cell-based; conditions: 48 hrs at 36° C., Sabouraud Dextrose Broth
Method: as §1

[9] = test system: Enterococcus hirae (8043); assay: as above; assay type: cell-based; conditions: 48 hrs at 36° C., visual inspection
Method: as §1

[10] = test system: Aureobasidium pullulans (9348); assay: as above; assay type: cell-based; conditions: 48 hrs at 36° C., Sabouraud Dextrose Broth
Method: as §1

[11] = test system: Bacillus subtilus (6633); assay: as above; assay type: cell-based; conditions: 48 hrs at 36° C., visual inspection
Method: as §1

[12] = test system: Candida albicans (10231); assay: as above; assay type: cell-based; conditions: 48 hrs at 36° C., Sabouraud Dextrose Broth
Method: as §1

[13] = test system: Escherichia coli (10536); assay: as above; assay type: cell-based; conditions: 48 hrs at 36° C., visual inspection
Method: as §1

[14] = test system: Klebsiella pneumoniae (4352); assay: as above; assay type: cell-based; conditions: 48 hrs at 36° C., visual inspection
Method: as §1

[15] = test system: Paecilomyces sp.; assay: as above; assay type: cell-based; conditions: 48 hrs at 36° C., Sabouraud Dextrose Broth
Method: as §1

[16] = test system: Aspergillus niger (16404); assay: as above; assay type: cell-based; conditions: 48 hrs at 36° C., Sabouraud Dextrose Broth
Method: as §1

## CCCCCCCCN=c1ccn(CCCCCCCCCCn2ccc(=NCCCCCCCC)cc2)cc1 [Octenidine HCl, Octenidine dihydrochloride]
[1]
  Irritancy Classification: Severe
[2]
  MIC: 0.61 µg/mL
[3]; Pluralibacter gergoviae
  MIC: 1.22 µg/mL
[4]
  MIC: < 0.31 µg/mL
[5]; Trichoderma virens
  MIC: < 0.31 µg/mL
[6]
  MIC: 1.22 µg/mL
[7]
  MIC: 1.22 µg/mL
[8]
  MIC: 0.61 µg/mL
[9]
  MIC: 0.61 µg/mL
[10]
  MIC: 0.61 µg/mL
[11]
  MIC: 0.61 µg/mL
[12]
  MIC: 0.31 µg/mL
[13]
  MIC: 0.61 µg/mL
[14]
  MIC: 0.61 µg/mL
[15]
  MIC: 78.1 µg/mL
[16]
  MIC: 1.22 µg/mL

## CCCCCCCCCCCCCCCCCC(=O)O.CCCCCCCCCCCCCCCCCC(=O)O.CCCCCCCCN=c1ccn(CCCCCCCCCCn2ccc(=NCCCCCCCC)cc2)cc1 [Octenidine distearate, octenidine distearate]
[1]
  ET50: >256.0 min
  ET50 (min): greater than 256.0 min
  Irritancy Classification: Non-Irritating, minimal
[2]
  Minimum Inhibitory Concentration (MIC): 2.44 ppm
[3]
  Minimum Inhibitory Concentration (MIC): 4.88 ppm
[4]
  Minimum Inhibitory Concentration (MIC): 2.44 ppm
[5]
  Minimum Inhibitory Concentration (MIC): 2.44 ppm
[6]
  Minimum Inhibitory Concentration (MIC): 4.88 ppm
[7]
  Minimum Inhibitory Concentration (MIC): 19.53 ppm
[8]
  Minimum Inhibitory Concentration (MIC): 2.44 ppm
[9]
  Minimum Inhibitory Concentration (MIC): 4.88 ppm
[10]
  Minimum Inhibitory Concentration (MIC): 1.22 ppm
[11]
  Minimum Inhibitory Concentration (MIC): 1.22 ppm
[12]
  Minimum Inhibitory Concentration (MIC): 0.61 ppm
[13]
  Minimum Inhibitory Concentration (MIC): 2.44 ppm
[14]
  Minimum Inhibitory Concentration (MIC): 2.44 ppm
[15]
  Minimum Inhibitory Concentration (MIC): 156.25 ppm
[16]
  Minimum Inhibitory Concentration (MIC): 9.77 ppm
